Assay results taken from US20260209193A1, “NOVEL INHIBITORS OF DNA DAMAGE RESPONSES FOR CANCER THERAPY” (The Regents of the University of California, priority 2022, published 2026).

What was measured:
ATR = molecular target: T1, ATR (Homo sapiens, UniProt Q13535); test: ATR-mediated signaling: phosphorylation of Rad17 Ser 645 and CHK1 Ser 345 in cells; format: cell-based; conditions: for ATR inhibition potency relative to JC099 (OLA- or UV-induced phosphorylation of Rad17 and CHK1): compared to JC099
T1 construct: endogenous in cells; host or cells: PC3, C4-2B/MR, SUM149PT-BRCA1rev, UWB1.289+BRCA1, MDA-MB-231
T1 sequence (Q13535 whole entry): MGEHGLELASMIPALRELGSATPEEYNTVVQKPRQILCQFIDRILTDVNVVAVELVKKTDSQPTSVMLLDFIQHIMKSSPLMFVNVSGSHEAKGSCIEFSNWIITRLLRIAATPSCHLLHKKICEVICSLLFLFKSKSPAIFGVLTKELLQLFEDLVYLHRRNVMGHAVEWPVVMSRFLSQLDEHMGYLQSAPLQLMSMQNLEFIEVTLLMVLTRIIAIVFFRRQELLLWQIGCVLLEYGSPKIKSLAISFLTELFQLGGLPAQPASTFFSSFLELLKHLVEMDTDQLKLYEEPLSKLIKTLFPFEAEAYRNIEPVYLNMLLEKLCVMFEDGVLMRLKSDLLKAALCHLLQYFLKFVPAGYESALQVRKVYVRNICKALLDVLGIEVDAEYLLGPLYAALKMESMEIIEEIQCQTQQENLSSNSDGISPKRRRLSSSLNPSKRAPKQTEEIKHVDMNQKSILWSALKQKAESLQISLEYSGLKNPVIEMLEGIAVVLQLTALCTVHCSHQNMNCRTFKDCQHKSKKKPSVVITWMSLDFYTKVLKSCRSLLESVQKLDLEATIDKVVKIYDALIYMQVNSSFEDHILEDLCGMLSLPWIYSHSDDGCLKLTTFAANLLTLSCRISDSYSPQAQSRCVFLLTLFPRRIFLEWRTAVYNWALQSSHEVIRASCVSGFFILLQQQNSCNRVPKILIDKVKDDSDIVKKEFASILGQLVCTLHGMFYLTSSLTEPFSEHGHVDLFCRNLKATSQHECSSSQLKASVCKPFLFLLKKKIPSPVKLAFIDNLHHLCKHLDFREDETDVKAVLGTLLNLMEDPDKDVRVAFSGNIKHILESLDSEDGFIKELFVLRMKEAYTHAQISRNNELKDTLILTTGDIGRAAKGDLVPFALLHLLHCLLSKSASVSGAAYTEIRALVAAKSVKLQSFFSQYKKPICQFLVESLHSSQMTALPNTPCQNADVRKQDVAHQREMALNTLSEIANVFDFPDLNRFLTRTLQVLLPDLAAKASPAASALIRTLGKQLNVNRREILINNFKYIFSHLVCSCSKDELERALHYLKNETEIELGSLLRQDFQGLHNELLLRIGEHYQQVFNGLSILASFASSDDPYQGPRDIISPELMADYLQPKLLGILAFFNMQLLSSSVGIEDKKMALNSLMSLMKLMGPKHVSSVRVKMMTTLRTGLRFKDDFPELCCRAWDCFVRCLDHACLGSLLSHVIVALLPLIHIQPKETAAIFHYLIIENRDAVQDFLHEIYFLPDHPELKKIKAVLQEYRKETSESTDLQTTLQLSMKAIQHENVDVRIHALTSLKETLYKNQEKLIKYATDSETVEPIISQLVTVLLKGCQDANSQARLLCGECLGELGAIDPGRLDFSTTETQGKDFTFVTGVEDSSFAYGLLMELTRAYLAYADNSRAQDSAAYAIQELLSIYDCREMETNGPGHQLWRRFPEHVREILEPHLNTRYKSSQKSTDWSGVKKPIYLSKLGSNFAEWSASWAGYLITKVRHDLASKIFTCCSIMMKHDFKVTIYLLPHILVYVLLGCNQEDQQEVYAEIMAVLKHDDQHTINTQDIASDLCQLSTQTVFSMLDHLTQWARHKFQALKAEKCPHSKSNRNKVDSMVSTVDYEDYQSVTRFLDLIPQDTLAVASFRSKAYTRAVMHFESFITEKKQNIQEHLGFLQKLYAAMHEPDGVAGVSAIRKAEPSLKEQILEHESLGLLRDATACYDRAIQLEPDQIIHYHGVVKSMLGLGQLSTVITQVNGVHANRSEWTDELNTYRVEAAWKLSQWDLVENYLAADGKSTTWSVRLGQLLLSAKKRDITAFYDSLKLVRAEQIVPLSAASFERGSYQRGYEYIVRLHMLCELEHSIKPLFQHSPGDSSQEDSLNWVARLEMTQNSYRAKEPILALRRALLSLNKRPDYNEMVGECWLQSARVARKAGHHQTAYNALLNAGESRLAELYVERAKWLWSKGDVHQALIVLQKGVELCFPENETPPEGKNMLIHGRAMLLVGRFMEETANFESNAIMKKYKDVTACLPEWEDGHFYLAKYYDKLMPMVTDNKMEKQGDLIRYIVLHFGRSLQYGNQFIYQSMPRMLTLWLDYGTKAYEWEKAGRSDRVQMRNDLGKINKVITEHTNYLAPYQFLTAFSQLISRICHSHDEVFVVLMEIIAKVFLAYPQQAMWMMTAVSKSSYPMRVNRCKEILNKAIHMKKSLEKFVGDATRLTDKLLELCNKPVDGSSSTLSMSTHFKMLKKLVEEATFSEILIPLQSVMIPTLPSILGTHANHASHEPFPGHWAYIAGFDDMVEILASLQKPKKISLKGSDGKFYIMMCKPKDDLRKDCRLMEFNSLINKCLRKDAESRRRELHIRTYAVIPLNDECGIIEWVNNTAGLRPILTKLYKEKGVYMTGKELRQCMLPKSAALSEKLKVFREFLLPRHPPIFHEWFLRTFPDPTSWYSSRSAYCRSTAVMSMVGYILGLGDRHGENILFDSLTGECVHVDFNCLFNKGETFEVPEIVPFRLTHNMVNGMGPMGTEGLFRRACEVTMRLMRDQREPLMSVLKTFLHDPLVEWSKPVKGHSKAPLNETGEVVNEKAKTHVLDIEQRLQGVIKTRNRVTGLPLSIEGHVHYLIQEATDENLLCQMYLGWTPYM
T1 sequence (Q8WXE1 whole entry partner): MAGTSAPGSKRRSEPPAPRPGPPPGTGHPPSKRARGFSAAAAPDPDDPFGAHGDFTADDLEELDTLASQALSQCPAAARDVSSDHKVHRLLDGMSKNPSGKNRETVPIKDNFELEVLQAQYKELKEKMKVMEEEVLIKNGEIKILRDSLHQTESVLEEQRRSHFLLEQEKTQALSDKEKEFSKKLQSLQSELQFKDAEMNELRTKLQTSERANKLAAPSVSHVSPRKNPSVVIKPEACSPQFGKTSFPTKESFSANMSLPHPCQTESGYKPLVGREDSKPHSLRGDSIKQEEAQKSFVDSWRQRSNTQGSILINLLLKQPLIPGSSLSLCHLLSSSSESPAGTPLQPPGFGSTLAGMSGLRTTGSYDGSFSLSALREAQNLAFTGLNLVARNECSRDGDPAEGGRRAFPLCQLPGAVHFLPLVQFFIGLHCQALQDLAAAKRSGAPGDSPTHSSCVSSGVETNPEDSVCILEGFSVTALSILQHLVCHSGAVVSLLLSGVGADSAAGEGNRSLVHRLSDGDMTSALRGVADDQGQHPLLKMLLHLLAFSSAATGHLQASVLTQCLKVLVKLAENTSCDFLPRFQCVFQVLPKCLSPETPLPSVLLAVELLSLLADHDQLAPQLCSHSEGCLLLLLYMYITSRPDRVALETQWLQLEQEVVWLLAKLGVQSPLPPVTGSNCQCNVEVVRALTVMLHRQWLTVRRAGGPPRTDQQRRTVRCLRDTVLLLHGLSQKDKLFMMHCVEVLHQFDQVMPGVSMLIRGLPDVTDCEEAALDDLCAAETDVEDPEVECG
Experimental: PARP inhibitor-resistant cells are increasingly dependent on ATR for survival, and ATR inhibition disrupts restored HR and fork protection pathways in PARP inhibitor resistant BRCA-deficient cancer cells. For ATR kinase in vitro assays, ATR was immunoprecipitated with 3 μg of anti-ATR antibody (Bethyl Laboratories, A300-137A) from 1 mg of cell lysate. […] The IC50 was determined by the enzyme profiling service of Eurofins Cerep (France). […] The phosphorylation of CHK1 at Ser 345 sites was used as a bio-marker of ATR-mediated signaling pathway. The phosphorylation of Rad17 at Ser 645, which is a substrate of ATR, was also examined.
ATR inhibition was assessed in C4-2B/MR cells. Considering ATM is a homologous protein of ATR, we also detected the effect of JC046 analogs on the phosphorylation of KAP1 at Ser 824 and CHK2 at Thr 68 sites, which were used as markers of ATM signaling pathway.

PARP1 = molecular target: T2, PARP1 (Homo sapiens, UniProt P09874); test: PARP1 trapping, chromatin fractionation (chromatin-bound fraction); format: cell-based; conditions: for PARP1 trapped on DNA lesions: PC3 and C4-2B/MR cells; for PARP1-trapping potency relative to JC099 (PARP1 in the chromatin-bound fraction): PC3 cells
T2 construct: endogenous in cells; host or cells: PC3
T2 sequence (P09874 whole entry, species assumed): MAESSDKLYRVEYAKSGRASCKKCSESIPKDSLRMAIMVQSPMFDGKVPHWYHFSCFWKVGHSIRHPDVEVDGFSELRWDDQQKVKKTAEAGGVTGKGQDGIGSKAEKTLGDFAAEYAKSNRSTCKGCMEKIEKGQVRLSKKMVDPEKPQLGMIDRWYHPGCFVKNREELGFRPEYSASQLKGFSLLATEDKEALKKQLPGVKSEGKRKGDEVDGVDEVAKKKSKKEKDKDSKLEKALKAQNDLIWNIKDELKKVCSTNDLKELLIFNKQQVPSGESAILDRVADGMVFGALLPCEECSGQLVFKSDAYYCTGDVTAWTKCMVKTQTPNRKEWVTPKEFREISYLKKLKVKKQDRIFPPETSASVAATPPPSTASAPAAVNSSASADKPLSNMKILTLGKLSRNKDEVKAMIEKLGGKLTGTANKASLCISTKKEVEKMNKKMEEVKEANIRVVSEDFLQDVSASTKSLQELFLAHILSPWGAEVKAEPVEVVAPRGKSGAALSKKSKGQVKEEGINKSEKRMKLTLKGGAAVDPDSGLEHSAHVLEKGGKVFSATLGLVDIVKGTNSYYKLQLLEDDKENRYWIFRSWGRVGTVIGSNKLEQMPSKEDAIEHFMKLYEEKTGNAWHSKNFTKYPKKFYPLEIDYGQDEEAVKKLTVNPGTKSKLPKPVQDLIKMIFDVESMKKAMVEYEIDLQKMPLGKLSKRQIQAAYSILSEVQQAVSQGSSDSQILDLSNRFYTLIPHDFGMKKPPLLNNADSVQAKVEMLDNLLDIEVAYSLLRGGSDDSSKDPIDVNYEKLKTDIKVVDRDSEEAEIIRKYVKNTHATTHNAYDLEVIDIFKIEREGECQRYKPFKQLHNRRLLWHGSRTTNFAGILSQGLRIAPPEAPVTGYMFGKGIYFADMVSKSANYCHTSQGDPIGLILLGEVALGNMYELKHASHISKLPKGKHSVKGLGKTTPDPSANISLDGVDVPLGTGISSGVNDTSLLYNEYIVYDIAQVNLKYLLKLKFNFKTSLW
From the text: The trapped PARP1 forms a toxic lesion and stalls the progress of replication forks. The replication fork collapses in BRCA1/2-deficient cancer cells, and then results in cell death. […] Six cancer cell lines were used in this assay, including two breast cancer cell lines, BRCA1-mutunt SUM149PT-BRCA1mut and SUM149PT-BRCA1rev where deleterious BRCA1 mutation is reverted to form a functional BRCA1, two ovarian cancer cell lines, BRCA1-null UWB1.289 and UWB1.289+BRCA1, a stable cell line in which wild-type BRCA1 function has been restored, and two prostate cancer cell lines, enzalutamide resistant C4-2B/MR which is homologous recombination (HR)-deficient due to Rad51 mutation, and enzalutamide insensitive PC3 which is HR-proficient.

[1] = 1 μM and 2 μM, PC3 and SUM149PT-BRCA1rev cells

SMILES	ATR inhibition potency relative to JC099 (OLA- or UV-induced phosphorylation of Rad17 and CHK1) (ATR)	other results
CCN(CC)C(=O)c1ccc(C(=O)NC2C/C(=C\c3ccc(F)c(F)c3)C(=O)/C(=C/c3ccc(F)c(F)c3)C2)c2nn(C)cc12 (centres unmarked) [JCS003, N^7-(3,5-bis((E)-3,4-difluorobenzylidene)-4-oxocyclohexyl)-N^4,N^4-diethyl-2-methyl-2H-indazole-4,7-dicarboxamide]		Olaparib induced phosphorylation of CHK1 at Ser 345 (ATR; 0.5 μM, 1 μM, 2 μM, PC3 and SUM149PT-BRCA1rev cells): inhibited; Olaparib induced phosphorylation of Rad17 at Ser 645 and CHK1 at Ser 345 (ATR; 2 μM, PC3 cells): inhibited; PARP1 trapped on DNA lesions (PARP1; 0.5 μM): trapped
CCN(CC)C(=O)c1ccc(C2C/C(=C\c3ccc(F)c(F)c3)C(=O)/C(=C/c3ccc(F)c(F)c3)C2)c2nn(C)cc12 (centres unmarked) [JCS004, 7-(3,5-bis((E)-3,4-difluorobenzylidene)-4-oxocyclohexyl)-N,N-diethyl-2-methyl-2H-indazole-4-carboxamide]		UV induced phosphorylation of CHK1 at Ser 345 (ATR; [1]): inhibited; PARP1 trapped on DNA lesions (PARP1; 0.5 μM and 2 μM): trapped
CCN(CC)C(=O)c1ccc(C2C/C(=C\c3ccc(F)c(F)c3)C(=O)/C(=C/c3ccc(F)c(F)c3)C2)c2[nH]ncc12 (centres unmarked) [JCS005, 7-(3,5-bis((E)-3,4-difluorobenzylidene)-4-oxocyclohexyl)-N,N-diethyl-1H-indazole-4-carboxamide]		UV induced phosphorylation of CHK1 at Ser 345 (ATR; [1]): inhibited; PARP1 trapped on DNA lesions (PARP1; 0.5 μM and 2 μM): trapped
O=C(CCN1CCCC1)NC1C/C(=C\c2ccc(F)c(F)c2)C(=O)/C(=C/c2ccc(F)c(F)c2)C1 (centres unmarked) [JCS007, N-(3,5-bis((E)-3,4-difluorobenzylidene)-4-oxocyclohexyl)-3-(pyrrolidin-1-yl)propanamide]		Olaparib induced phosphorylation of Rad17 at Ser 645 and CHK1 at Ser 345 (ATR; 1 μM and 2 μM, PC3 and MDA-MB-231 cells): inhibited
CCN(CC)CCOc1ccc(-c2ccc(C(=O)NC3C/C(=C\c4ccc(F)c(F)c4)C(=O)/C(=C/c4ccc(F)c(F)c4)C3)cc2)cc1 (centres unmarked) [JCS095, N-(3,5-Bis((E)-3,4-difluorobenzylidene)-4-oxocyclohexyl)-4′-(2-(diethylamino)ethoxy)-[1,1′-biphenyl]-4-carboxamide]	less ATR inhibition potencies	
CCN(CC)CCOc1ccc2cc(C(=O)NC3C/C(=C\c4ccc(F)c(F)c4)C(=O)/C(=C/c4ccc(F)c(F)c4)C3)ccc2c1 (centres unmarked) [JCS098, N-(3,5-Bis((E)-3,4-difluorobenzylidene)-4-oxocyclohexyl)-6-(2-(diethylamino)ethoxy)-2-naphtha-mide]	less ATR inhibition potencies	
O=C1/C(=C/c2ccc(F)c(F)c2)CC(NC(=O)c2ccc(OCCN3CCCCC3)c(OCc3ccccc3)c2)C/C1=C\c1ccc(F)c(F)c1 (centres unmarked) [JCS102, 3-(Benzyloxy)-N-(3,5-bis((E)-3,4-difluorobenzylidene)-4-oxocyclohexyl)-4-(2-(piperidin-1-yl)eth-oxy)benzamide]		PARP1-trapping potency relative to JC099 (PARP1 in the chromatin-bound fraction) (PARP1): higher potency in PARP1-trapping
CC(=O)c1cc(C(=O)NC2C/C(=C\c3ccc(F)c(F)c3)C(=O)/C(=C/c3ccc(F)c(F)c3)C2)ccc1OCCN1CCCCC1 (centres unmarked) [JCS103, 3-Acetyl-N-(3,5-bis((E)-3,4-difluorobenzylidene)-4-oxocyclohexyl)-4-(2-(piperidin-1-yl)ethoxy)-benzamide]		PARP1-trapping potency relative to JC099 (PARP1 in the chromatin-bound fraction) (PARP1): higher potency in PARP1-trapping
CCN(CC)CCOc1ccc(C(=O)NC2C/C(=C\c3ccc(F)c(F)c3)C(=O)/C(=C/c3ccc(F)c(F)c3)C2)cc1C(C)=O (centres unmarked) [JCS104, 3-Acetyl-N-(3,5-bis((E)-3,4-difluorobenzylidene)-4-oxocyclohexyl)-4-(2-(diethylamino)ethoxy)-benzamide]	less ATR inhibition potencies	
CCN(CC)CCOc1ccc(C(=O)NC2C/C(=C\c3ccc(F)c(F)c3)C(=O)/C(=C/c3ccc(F)c(F)c3)C2)c(C)c1 (centres unmarked) [JCS112, N-(3,5-Bis((E)-3,4-difluorobenzylidene)-4-oxocyclohexyl)-4-(2-(diethylamino)ethoxy)-2-methyl-benzamide]	less ATR inhibition potencies	
CCN(CC)CCOc1ccc(C(=O)NC2C/C(=C\c3ccc(F)c(F)c3)C(=O)/C(=C/c3ccc(F)c(F)c3)C2)cn1 (centres unmarked) [JCS115, N-(3,5-Bis((E)-3,4-difluorobenzylidene)-4-oxocyclohexyl)-6-(2-(diethylamino)ethoxy)nicotinamide]	less ATR inhibition potencies	
CCN(CC)CCOc1ccc(C(=O)NC2C/C(=C\c3ccc(F)c(F)c3)C(=O)/C(=C/c3ccc(F)c(F)c3)C2)nc1 (centres unmarked) [JCS131, N-(3,5-Bis((E)-3,4-difluorobenzylidene)-4-oxocyclohexyl)-5-(2-(diethylamino)ethoxy)picolinamide]		PARP1-trapping potency relative to JC099 (PARP1 in the chromatin-bound fraction) (PARP1): higher potency in PARP1-trapping
O=C1/C(=C/c2ccc(F)c(F)c2)CC(NC(=O)c2ccc(OCCN3CCN4CCCC4C3)cc2)C/C1=C\c1ccc(F)c(F)c1 (centres unmarked) [JCS135, N-(3,5-Bis((E)-3,4-difluorobenzylidene)-4-oxocyclohexyl)-4-(2-(hexahydropyrrolo[1,2-a]pyrazin-2(1H)-yl)ethoxy)benzamide]		PARP1-trapping potency relative to JC099 (PARP1 in the chromatin-bound fraction) (PARP1): higher potency in PARP1-trapping
O=C1/C(=C/c2ccc(F)c(F)c2)CC(NC(=O)c2ccc(OCCN3CC4OCCOC4C3)cc2)C/C1=C\c1ccc(F)c(F)c1 (centres unmarked) [JCS137, N-(3,5-Bis((E)-3,4-difluorobenzylidene)-4-oxocyclohexyl)-4-(2-(hexahydro-6H-[1,4]dioxino[2,3-c]pyrrol-6-yl)ethoxy)benzamide]		PARP1-trapping potency relative to JC099 (PARP1 in the chromatin-bound fraction) (PARP1): their potencies were less than JC099
COCCN(CCOC)CCOc1ccc(C(=O)NC2C/C(=C\c3cc(F)c(F)c(OC)c3)C(=O)/C(=C/c3cc(F)c(F)c(OC)c3)C2)cc1 (centres unmarked) [JCS153, N-(3,5-Bis((E)-3,4-difluoro-5-methoxybenzylidene)-4-oxocyclohexyl)-4-(2-(bis(2-methoxyethyl)ami-no)ethoxy)benzamide]	greater ATR inhibition potential	
CCN1CCC[C@H]1CNc1ccc(C(=O)NC2C/C(=C\c3ccc(F)c(F)c3F)C(=O)/C(=C/c3ccc(F)c(F)c3F)C2)cc1 (stereo partly drawn) [JCS157, 4-((((S)-1-Ethylpyrrolidin-2-yl)methyl)amino)-N-(4-oxo-3,5-bis((E)-2,3,4-trifluorobenzylidene)-cyclohexyl)benzamide]	less ATR inhibition potencies	

Continued, in another order:

ATR inhibition potency relative to JC099 (OLA- or UV-induced phosphorylation of Rad17 and CHK1) (ATR)	SMILES	other results
greater ATR inhibition potential	CCN1CCC[C@@H]1CNc1ccc(C(=O)NC2C/C(=C\c3ccc(F)c(F)c3)C(=O)/C(=C/c3ccc(F)c(F)c3)C2)cc1 (stereo partly drawn) [JCS066, N-(3,5-Bis((E)-3,4-difluorobenzylidene)-4-oxocyclohexyl)-4-((((R)-1-ethylpyrrolidin-2-yl)methyl)-amino)benzamide]	
their potencies were close to JC099	N#Cc1cc(NCCN2CCCC2)ccc1C(=O)NC1C/C(=C\c2ccc(F)c(F)c2)C(=O)/C(=C/c2ccc(F)c(F)c2)C1 (centres unmarked) [JCS0091]	
their potencies were close to JC099	O=C1/C(=C/c2ccc(F)c(F)c2)CC(NC(=O)c2cnc(NCCN3CCCC3)c([N+](=O)[O-])c2)C/C1=C\c1ccc(F)c(F)c1 (centres unmarked) [JCS092, N-(3,5-Bis((E)-3,4-difluorobenzylidene)-4-oxocyclohexyl)-5-nitro-6-((2-(pyrrolidin-1-yl)ethyl)ami-no)nicotinamide]	
less ATR inhibition potencies	O=C1/C(=C/c2ccc(F)c(F)c2)CC(NC(=O)c2cnc(NCCN3CCCC3)cn2)C/C1=C\c1ccc(F)c(F)c1 (centres unmarked) [JCS093, N-(3,5-Bis((E)-3,4-difluorobenzylidene)-4-oxocyclohexyl)-5-((2-(pyrrolidin-1-yl)ethyl)amino)pyr-azine-2-carboxamide]	
less ATR inhibition potencies	O=C1/C(=C/c2ccc(F)c(F)c2)CC(NC(=O)c2ccc3cc(OCCN4CCCCC4)ccc3c2)C/C1=C\c1ccc(F)c(F)c1 (centres unmarked) [JCS097, N-(3,5-Bis((E)-3,4-difluorobenzylidene)-4-oxocyclohexyl)-6-(2-(piperidin-1-yl)ethoxy)-2-naphth-amide]	
less ATR inhibition potencies	O=C1/C(=C/c2ccc(F)c(F)c2)CC(NC(=O)c2ccc(OCCN3CCCCC3)nc2)C/C1=C\c1ccc(F)c(F)c1 (centres unmarked) [JCS116, N-(3,5-Bis((E)-3,4-difluorobenzylidene)-4-oxocyclohexyl)-6-(2-(piperidin-1-yl)ethoxy)nicotinamide]	
